Experimental data as given in ChEMBL document CHEMBL1121941, “Two clonidine-like compounds with substituents at the 2-, 3-, and 6-position of the phenyl ring possessing pronounced hypotensive potencies” (J Med Chem, 1982).

Tests used:
Felis catus = test: Hypotensive activity measured as the 20% decrease in mean arterial blood pressure in anesthetized cat; format: functional
Rattus norvegicus = test: Hypotensive activity measured as the 20% decrease in mean arterial blood pressure in anesthetized normotensive rat; format: functional
[1] = Partition coefficient (logP); format: physicochemical; conditions: octanol/water

| SMILES | pC20 (Felis catus) | pC20 (Rattus norvegicus) | logP [1] |
| --- | --- | --- | --- |
| Cc1ccc(Cl)c(Cl)c1NC1=NCCN1 | 7.92 | 7.79 | 1.06 |
| Clc1ccc(Cl)c(NC2=NCCN2)c1Cl | 9.17 | 8.39 | 1.71 |
| Clc1cccc(Cl)c1NC1=NCCN1 [CLONIDINE] | 8.72 | 7.96 | 0.91 |
